16 compounds from paper PMC9181188 (International Journal of Molecular Sciences, 2022) can be followed below.

The assay deals with M. tuberculosis Spec. 210 (Multidrug-Resistant). Nature of the assay: microbe, parasite or virus in culture. The format is cell-based, Mycobacterium tuberculosis. The note with it: for MIC: Mycobacterium tuberculosis, 336 h, read-out: MIC M. tuberculosis Spec. 210 (Multidrug-Resistant); for fold higher activity than referential tuberculostatics: multidrug-resistant Spec. 210, versus INH, RMP, SM, EMB.

SMILES strings stand for the structures. ≈ marks a conversion by molar mass, not a printed value. Where only a bound is given, the exact number is not on record here.

For the compound `C/C=C/C(=O)N1CCCC2CN(c3c(F)cc4c(=O)c(C(=O)O)cn(C5CC5)c4c3OC)CC21` (stereo not drawn) [Compound 1m, 7-{1-(E)-But-2-enoyl-octahydro-pyrrolo[3,4-b]pyridin-6-yl}-1-cyclopropyl-6-fluoro-8-methoxy-4-oxo-1,4-dihydro-quinoline-3-carboxylic acid], the MIC came out at 64 µg/mL (≈ 136 µM).
On the same count and under the same terms, to `COc1c(N2CC3CCCN(C(=O)/C=C(\C)CCC=C(C)C)C3C2)c(F)cc2c(=O)c(C(=O)O)cn(C3CC3)c12` (stereo not drawn) [Compound 3m, 1-Cyclopropyl-7-{1-(2E)-(3,7-dimethyl-octa-2,6-dienoyl)-octahydro-pyrrolo[3,4-b]pyridin-6-yl}-6-fluoro-8-methoxy-4-oxo-1,4-dihydro-quinoline-3-carboxylic acid] belongs 128 µg/mL (≈ 232 µM).
For the compound `CCCCCCCC/C=C\CCCCCCCC(=O)N1CCCC2CN(c3c(F)cc4c(=O)c(C(=O)O)cn(C5CC5)c4c3OC)CC21` (stereo not drawn) [Compound 4m, 1-Cyclopropyl-6-fluoro-8-methoxy-7-{1-(Z)-octadec-9-enoyl-octahydro-pyrrolo[3,4-b]pyridin-6-yl}-4-oxo-1,4-dihydro-quinoline-3-carboxylic acid], the MIC is > 512 µg/mL.
On the same count and under the same terms, to `CCCCCCCC/C=C/CCCCCCCC(=O)N1CCCC2CN(c3c(F)cc4c(=O)c(C(=O)O)cn(C5CC5)c4c3OC)CC21` (stereo not drawn) [Compound 5m, 1-Cyclopropyl-6-fluoro-8-methoxy-7-{1-(E)-octadec-9-enoyl-octahydro-pyrrolo[3,4-b]pyridin-6-yl}-4-oxo-1,4-dihydro-quinoline-3-carboxylic acid] belongs 256 µg/mL (≈ 384 µM).
Same read-out and setting: to `CC/C=C\C/C=C\C/C=C\CCCCCCCC(=O)N1CCCC2CN(c3c(F)cc4c(=O)c(C(=O)O)cn(C5CC5)c4c3OC)CC21` (stereo not drawn) [Compound 6m, 1-Cyclopropyl-6-fluoro-8-methoxy-7-{1-(9Z,12Z,15Z)-octadeca-9,12,15-trienoyl-octahydro-pyrrolo[3,4-b]pyridin-6-yl}-4-oxo-1,4-dihydro-quinoline-3-carboxylic acid] belongs 256 µg/mL (≈ 387 µM); to `CCCCCCCC/C=C\CCCCCCCCCCCC(=O)N1CCCC2CN(c3c(F)cc4c(=O)c(C(=O)O)cn(C5CC5)c4c3OC)CC21` (stereo not drawn) [Compound 7m, 1-Cyclopropyl-7-{1-(Z)-docos-13-enoyl-octahydro-pyrrolo[3,4-b]pyridin-6-yl}-6-fluoro-8-methoxy-4-oxo-1,4-dihydro-quinoline-3-carboxylic acid], > 512 µg/mL.
Turning to `CC/C=C\C/C=C\C/C=C\C/C=C\C/C=C\C/C=C\CCC(=O)N1CCCC2CN(c3c(F)cc4c(=O)c(C(=O)O)cn(C5CC5)c4c3OC)CC21` (stereo not drawn) [Compound 8m, 1-Cyclopropyl-7-{1-(4Z,7Z,10Z,13Z,16Z,19Z)-docosa-4,7,10,13,16,19-hexaenoyl-octahydro-pyrrolo[3,4-b]pyridin-6-yl}-6-fluoro-8-methoxy-4-oxo-1,4-dihydro-quinoline-3-carboxylic acid], the MIC stood at 2 µg/mL (≈ 2.81 µM) and the “fold higher activity than referential tuberculostatics” value was 8–16 fold.
Take `CCCCCCCCCCCCCCCC(=O)N1CCC[C@H]2CN(c3c(F)cc4c(=O)c(C(=O)O)cn(C5CC5)c4c3OC)C[C@H]21` [Compound 9m, 1-Cyclopropyl-6-fluoro-7-(1-hexadecanoyl-octahydro-pyrrolo[3,4-b]pyridin-6-yl)-8-methox-4-oxo-1,4-dihydro-quinoline-3-carboxylic acid]: the MIC is > 512 µg/mL.
For the compound `CCCCC/C=C\C/C=C\CCCCCCCC(=O)N1CCCC2CN(c3c(F)cc4c(=O)c(C(=O)O)cn(C5CC5)c4c3OC)CC21` (stereo not drawn) [Compound 11m, 1-Cyclopropyl-6-fluoro-8-methoxy-7-{1-(9Z,12Z)-octadeca-9,12-dienoyl-octahydropyrrolo-[3,4-b]pyridin-6-yl)-4-oxo-1,4-dihydro-quinoline-3-carboxylic acid], the MIC worked out at 256 µg/mL (≈ 386 µM).
As to `CCCCC/C=C\C/C=C\C/C=C\C/C=C\CCCC(=O)N1CCCC2CN(c3c(F)cc4c(=O)c(C(=O)O)cn(C5CC5)c4c3OC)CC21` (stereo not drawn) [Compound 13m, 1-Cyclopropyl-6-fluoro-7-{1-(5Z,8Z,11Z,14Z)-icosa-5,8,11,14-tetraenoyl-octahydro-pyrrolo[3,4-b]pyridin-6-yl}-8-methoxy-4-oxo-1,4-dihydro-quinoline-3-carboxylic acid], the MIC turned out to be 2 µg/mL (≈ 2.91 µM) and the “fold higher activity than referential tuberculostatics” value is reported as 8–16 fold.
With `CCCCCCCC(=O)N1CCCC2CN(c3c(F)cc4c(=O)c(C(=O)O)cn(C5CC5)c4c3OC)CC21` (stereo not drawn) [Compound 15m, 1-Cyclopropyl-6-fluoro-8-methoxy-7-(1-octanoyl-octahydro-pyrrolo[3,4-b]pyridin-6-yl)-4-oxo-1,4-dihydro-quinoline-3-carboxylic acid], the MIC is 128 µg/mL (≈ 243 µM).
With `CCCCCCCCCCCCCCCCCC(=O)N1CCCC2CN(c3c(F)cc4c(=O)c(C(=O)O)cn(C5CC5)c4c3OC)CC21` (stereo not drawn) [Compound 16m, 1-Cyclopropyl-6-fluoro-8-methoxy-7-(1-octadecanoyl-octahydro-pyrrolo[3,4-b]pyridin-6-yl)-4-oxo-1,4-dihydro-quinoline-3-carboxylic acid], the MIC is > 512 µg/mL.
The same measure, in the same setting: to `CC[C@@H](CO)NCCN[C@@H](CC)CO` [Ethambutol (EMB), Ethambutol, reference compound] belongs 32 µg/mL (≈ 157 µM).
For `NNC(=O)c1ccncc1` [Isoniazid (INH), Isoniazid, reference compound], the MIC turned out to be 16 µg/mL (≈ 117 µM).
On the same count and under the same terms, to `CO[C@H]1/C=C/O[C@@]2(C)Oc3c(C)c(O)c4c(O)c(c(/C=N/N5CCN(C)CC5)c(O)c4c3C2=O)NC(=O)/C(C)=C\C=C\[C@H](C)[C@H](O)[C@@H](C)[C@@H](O)[C@@H](C)[C@H](OC(C)=O)[C@@H]1C` [Rifampicin (RMP), Rifampicin, reference compound] belongs 32 µg/mL (≈ 38.9 µM); to `[H]/N=C(/N)N[C@H]1[C@H](O)[C@@H](O)[C@H](O[C@@H]2O[C@@H](C)[C@](O)(C=O)[C@H]2O[C@@H]2O[C@@H](CO)[C@H](O)[C@@H](O)[C@@H]2NC)[C@@H](N/C(N)=N\[H])[C@@H]1O` [Streptomycin (SM), Streptomycin, reference compound], 16 µg/mL (≈ 27.5 µM).
